One test deals with RXF 393. Description: NCI 60 cell panel SRB screen. It counts as cell-based. Particulars: Homo sapiens; RXF 393, single dose 10 μM; read-out: percent cell growth promotion.
The test system of the next test is NCI-H522. Description: NCI 60 cell panel SRB screen. It is filed as cell-based. Particulars: Homo sapiens; NCI-H522, single dose 10 μM; read-out: percent cell growth promotion.
For another test, the system named is A549/ATCC. Description: NCI 60 cell panel SRB screen. It counts as cell-based. Particulars: Homo sapiens, single dose 10 μM, read-out: percent cell growth promotion.
For the next test, the system named is MDA-MB-435. Briefly: NCI 60 cell panel SRB screen. It is filed as cell-based. Particulars: Homo sapiens, MDA-MB-435, read-out: percent cell growth promotion.
For the next test, the system named is CAKI-1. Description: NCI 60 cell panel SRB screen. Particulars: Homo sapiens; CAKI-1, single dose 10 μM; read-out: percent cell growth promotion. It is filed as cell-based, human.
The subject of a further test is TK-10. Briefly: NCI 60 cell panel SRB screen. Particulars: Homo sapiens; TK-10, single dose 10 μM; read-out: percent cell growth promotion. It counts as cell-based, human.
Another test concerns SNB-19. Briefly: NCI 60 cell panel SRB screen. It counts as cell-based. Particulars: Homo sapiens; SNB-19, single dose 10 μM; read-out: percent cell growth promotion.
For another test, the system named is OVCAR-5. Briefly: NCI 60 cell panel SRB screen. It is filed as cell-based. Particulars: Homo sapiens; OVCAR-5, single dose 10 μM; read-out: percent cell growth promotion.
The test system of another test is SNB-75. Description: NCI 60 cell panel SRB screen. It counts as cell-based. Particulars: Homo sapiens; SNB-75, single dose 10 μM; read-out: percent cell growth promotion.
The subject of another test is HCC-2998. Briefly: NCI 60 cell panel SRB screen. It is filed as cell-based. Particulars: Homo sapiens; HCC-2998, single dose 10 μM; read-out: percent cell growth promotion.
A further test has as its system full NCI 60 cell panel. Briefly: NCI 60 cell panel SRB screen, whole panel. It is filed as cell-based, human. Particulars: for activity at 10 µM: Homo sapiens, 60 cell, mean over the panel, single dose 10 μM, read-out: Mean percent cell growth promotion; for cell growth inhibition, in words: single dose 10 µM.
In a further test the test system is MOLT-4. Description: NCI 60 cell panel SRB screen. It is filed as cell-based. Particulars: Homo sapiens; MOLT-4, single dose 10 μM; read-out: percent cell growth promotion.
Another test concerns HCT-15. Briefly: NCI 60 cell panel SRB screen. It is filed as cell-based. Particulars: Homo sapiens; HCT-15, single dose 10 μM; read-out: percent cell growth promotion.
Another test deals with OVCAR-3. Description: NCI 60 cell panel SRB screen. It is filed as cell-based. Particulars: Homo sapiens; OVCAR-3, single dose 10 μM; read-out: percent cell growth promotion.
For a further test, the system named is K-562. Briefly: NCI 60 cell panel SRB screen. It is filed as cell-based. Particulars: Homo sapiens, K562; K-562, single dose 10 μM; read-out: percent cell growth promotion.
In the next test the test system is OVCAR-4. Briefly: NCI 60 cell panel SRB screen. Particulars: Homo sapiens; OVCAR-4, single dose 10 μM; read-out: percent cell growth promotion. It is filed as cell-based.
The subject of the next test is NCI-H226. Briefly: NCI 60 cell panel SRB screen. It counts as cell-based. Particulars: Homo sapiens; NCI-H226, single dose 10 μM; read-out: percent cell growth promotion.
The test system of another test is T-47D. Briefly: NCI 60 cell panel SRB screen. It counts as cell-based. Particulars: Homo sapiens, T47D, read-out: percent cell growth promotion.

Turning to `CCOC(=O)N1CCN(c2nnc(C)c3ccccc23)CC1` [Compound 8f, Ethyl 4–(4-methylphthalazin-1-yl)piperazine-1-carboxylate], the activity at 10 µM stood at 108% in the test on RXF 393; 93.8% in the test with NCI-H522; 94.1% in the test with A549/ATCC; 97.4% in the test with MDA-MB-435; 90.3% in the test with CAKI-1; 90.6% with TK-10. Besides, the activity at 10 µM in the test with SNB-19 was determined as 107%; in the test on OVCAR-5, 95%; in the test on SNB-75, 101%; in the test on HCC-2998, 99.8%; in the test with full NCI 60 cell panel it was 101%; with MOLT-4, 109%. For the same compound, the activity at 10 µM with HCT-15 came to 98.6%; in the test on OVCAR-3 it was 112%; in the test on K-562, 100%; in the test with OVCAR-4, 97.8%; in the test on NCI-H226 it was 103%; with T-47D, 87.2%. The “cell growth inhibition, in words” value in the test with full NCI 60 cell panel is “nor the piperazines (8a, 8d, 8f, 8g, 8h and 8i) showed any significant cell line growth inhibition”.

Consider `Cc1nnc(N2CCN(c3ccccc3)CC2)c2ccccc12` [Compound 8g, 1-Methyl-4–(4-phenylpiperazin-1-yl)phthalazine], for which the activity at 10 µM is 105% with RXF 393; 94.5% in the test with NCI-H522; 99.3% in the test on A549/ATCC; 99.5% with MDA-MB-435; 95.3% in the test with CAKI-1; 97.2% in the test with TK-10. The activity at 10 µM is 105% in the test on SNB-19; 98.2% in the test on OVCAR-5; 98.1% with SNB-75; 109% in the test with HCC-2998; 102% in the test on full NCI 60 cell panel; 110% in the test on MOLT-4. Moreover, the activity at 10 µM came to 98.5% in the test with HCT-15; 108% in the test with OVCAR-3; 116% in the test with K-562; 104% in the test on OVCAR-4; 95.2% in the test on NCI-H226; 90.5% in the test with T-47D. In the test with full NCI 60 cell panel, the “cell growth inhibition, in words” value is “nor the piperazines (8a, 8d, 8f, 8g, 8h and 8i) showed any significant cell line growth inhibition”.

Take `Cc1nnc(N2CCN(c3ccccc3F)CC2)c2ccccc12` [Compound 8h, 1–(4-(2-Fluorophenyl)piperazin-1-yl)-4-methylphthalazine]: the activity at 10 µM is 99.8% in the test on RXF 393; 89% with NCI-H522; 89% in the test on A549/ATCC; 93.5% in the test on MDA-MB-435; 86.8% in the test with CAKI-1; 88.7% in the test with TK-10. Also, the activity at 10 µM in the test on SNB-19 was 99.9%; in the test on OVCAR-5, 87.9%; in the test with SNB-75 it was 109%; with HCC-2998, 101%; with full NCI 60 cell panel, 99%; in the test on MOLT-4 it was 102%. Besides, the activity at 10 µM with HCT-15 came out at 91.8%; with OVCAR-3, 110%; with K-562, 110%; in the test with OVCAR-4, 91.8%; with NCI-H226, 90.1%; in the test on T-47D it was 82.3%. In addition, the “cell growth inhibition, in words” value in the test on full NCI 60 cell panel is “nor the piperazines (8a, 8d, 8f, 8g, 8h and 8i) showed any significant cell line growth inhibition”.

`Cc1nnc(N2CCN(c3ccccn3)CC2)c2ccccc12` [Compound 8i, 1-Methyl-4–(4-(pyridin-2-yl)piperazin-1-yl)phthalazine]: the activity at 10 µM worked out at 98.6% in the test with RXF 393; 94.5% in the test on NCI-H522; 92.3% in the test with A549/ATCC; 99.6% with MDA-MB-435; 94.8% in the test on CAKI-1; 83.2% with TK-10. Further, the activity at 10 µM with SNB-19 was 101%; in the test with OVCAR-5, 98.2%; with SNB-75, 114%; in the test with HCC-2998 it was 102%; in the test with full NCI 60 cell panel, 101%; in the test with MOLT-4, 96.1%. The activity at 10 µM in the test with HCT-15 was 90.3%; in the test on OVCAR-3, 114%; in the test on K-562 it was 101%; in the test on OVCAR-4 it was 100%; in the test on NCI-H226, 98.7%; in the test with T-47D it was 96%. Besides, the “cell growth inhibition, in words” value in the test with full NCI 60 cell panel is “nor the piperazines (8a, 8d, 8f, 8g, 8h and 8i) showed any significant cell line growth inhibition”.

Source of the values: PMC6691788, “Design and synthesis of phthalazine-based compounds as potent anticancer agents with potential antiangiogenic activity via VEGFR-2 inhibition” (Journal of Enzyme Inhibition and Medicinal Chemistry, 2019).
